Experimental findings from patent publication US20260365653A1, “IRREVERSIBLE MUTEGFR INHIBITORS” (Bayer Aktiengesellschaft, priority 2022, published 2026) are described below.

Each structure is given as a SMILES string. pIC50: −log10 of the molar value. Values joined by “and” are separate entries in the source; they are usually repeats but may differ in a detail not shown here. Identical values can stand only once.

One test has as its system BA/F3 (insSVD) cells. Kind of test: Ba/F3-EGFR-insSVD cell survival assay (Cell Titer-Glo). In kind it is cell-based. The method in brief: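 Ba/F3 cells stably expressing retroviral EGFR-insSVD or insSVD T790M, grown without IL-3 on 10 ng/ml EGF, 4000 cells/well. Compound pinned in, 48 h at 37° C. Viability by CellTiter-Glo luminescence.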
Background: ATP-based viability assays read luminescence as a measure of living cells.

Test [1] concerns the target T1, mutEGFR (D770_N771insNPG, T790) (Homo sapiens, UniProt P00533, INS770NPG/T790M).
T1 construct: exact insNPG construct not described; in-house EGFR proteins were N-terminal GST fusions from baculovirus/insect cells (borders R669-A1210 given only for WT, insSVD, insASV)
Kind of test: mutEGFR (D770_N771insNPG, T790) kinase assay. In kind it is biochemical. The text has this:
The different EGFR proteins used in the biochemical kinase activity inhibition assays were generated inhouse by expression in insect cells using Baculo Virus system and subsequent purification as described in the following paragraphs.
The cDNAs encoding the various protein sequences from human EGFR human (P00533) were optimized for expression in eukaryotic cells and synthesized by the GeneArt Technology at Life Technologies.

For test [2], the target named is T2, mutEGFR (D770_N771insSVD) (Homo sapiens, UniProt P00533, DUP768-770).
T2 construct: GST-EGFR #3 (SVD between D770 and N771); made in house; host or cells: Sf9 insect cells (baculovirus)
T2 sequence (P00533 with tags, fused parts or gaps DUP768-770): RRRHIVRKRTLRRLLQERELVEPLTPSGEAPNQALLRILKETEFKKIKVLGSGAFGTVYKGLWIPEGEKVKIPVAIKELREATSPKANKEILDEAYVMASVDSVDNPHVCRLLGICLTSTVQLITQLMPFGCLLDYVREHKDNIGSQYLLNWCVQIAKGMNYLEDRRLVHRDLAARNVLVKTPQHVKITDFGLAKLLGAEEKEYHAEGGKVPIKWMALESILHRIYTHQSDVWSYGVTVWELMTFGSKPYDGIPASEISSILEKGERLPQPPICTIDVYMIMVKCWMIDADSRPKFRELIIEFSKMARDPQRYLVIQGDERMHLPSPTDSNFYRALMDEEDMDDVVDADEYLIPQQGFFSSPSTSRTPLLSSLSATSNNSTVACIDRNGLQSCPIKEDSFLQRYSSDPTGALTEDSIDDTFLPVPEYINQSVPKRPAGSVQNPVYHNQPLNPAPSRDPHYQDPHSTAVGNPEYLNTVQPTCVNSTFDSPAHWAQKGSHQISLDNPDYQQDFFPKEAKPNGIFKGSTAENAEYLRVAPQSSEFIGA
The test is described as follows: Exon20-Mutant-EGFR (D770_N771insSVD) kinase assay (TR-FRET). It counts as biochemical. (Time-resolved FRET reads energy transfer from a long-lived donor to a nearby acceptor.)

[3] abbreviates: Mus musculus, BaF3, 48 h, Table 3a, cell survival, Cell Titer-Glo, with 10 ng/ml EGF, without IL-3.
[4] abbreviates: Mus musculus, BaF3, 48 h, Table 3b, Ba/F3 EGFR-insSVD.
[5] abbreviates: Table 2b (from US Priority Patent Application), mutEGFR D770_N771insNPG.
Setting [6] is: mutEGFR (D770_N771insSVD) kinase assay IC50, Table 2a, D770_N771insSVD, 2 mM ATP.
The mark [7] stands for this setting: mutEGFR (D770_N771insSVD) kinase assay IC50, Table 2b (from US Priority Patent Application), mutEGFR D770_N771insSVD.
Setting [8] is: Table 3a, cell survival, Cell Titer-Glo, with 10 ng/ml EGF, without IL-3, 48 h.

T1 sequence (P00533 with tags, fused parts or gaps INS770NPG/T790M limits assumed): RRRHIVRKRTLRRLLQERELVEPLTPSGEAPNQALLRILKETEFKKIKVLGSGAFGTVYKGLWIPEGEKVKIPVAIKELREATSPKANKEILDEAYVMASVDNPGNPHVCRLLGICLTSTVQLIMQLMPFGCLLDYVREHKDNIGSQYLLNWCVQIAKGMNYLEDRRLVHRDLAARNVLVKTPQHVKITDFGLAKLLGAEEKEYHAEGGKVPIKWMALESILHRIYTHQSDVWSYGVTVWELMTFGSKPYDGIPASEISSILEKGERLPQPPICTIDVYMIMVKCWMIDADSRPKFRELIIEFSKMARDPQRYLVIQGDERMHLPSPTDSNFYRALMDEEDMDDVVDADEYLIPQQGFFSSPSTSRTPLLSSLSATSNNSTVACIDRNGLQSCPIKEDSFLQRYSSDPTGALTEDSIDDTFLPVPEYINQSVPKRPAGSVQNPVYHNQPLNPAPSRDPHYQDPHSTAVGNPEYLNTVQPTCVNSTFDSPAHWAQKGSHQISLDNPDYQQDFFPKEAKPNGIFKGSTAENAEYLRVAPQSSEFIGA

The pIC50 is the negative decadic logarithm of the IC50, by convention in mol/L. A higher pIC50 goes with a small IC50. As for `C=CC(=O)N1CCn2nc(-c3ccc(Cl)c(C)c3)c(-c3ccncc3)c2C1` [Example 2, 1-[2-(4-chloro-3-methylphenyl)-3-(pyridin-4-yl)-6,7-dihydropyrazolo[1,5-a]pyrazin-5(4H)-yl]prop-2-en-1-one], the negative logarithm of the IC50 (pIC50) with BA/F3 (insSVD) cells (setting [3]) was 7.69; in the test on BA/F3 (insSVD) cells (setting [4]), 7.69; in test [1] (Table 2a, D770_N771insNPG), 9.84; in test [1] (setting [5]) it was 9.84; in test [2] (setting [6]), 9.98 and > 10.14; in test [2] (setting [7]), > 10.14 and 9.98.
Regarding `C=CC(=O)N1CCn2nc(-c3ccc(C#N)cc3)c(-c3ccncc3)c2C1` [Example 43, 4-[5-acryloyl-3-(pyridin-4-yl)-4,5,6,7-tetrahydropyrazolo[1,5-a]pyrazin-2-yl]benzonitrile], the negative logarithm of the IC50 (pIC50) is 6.88 in the test with BA/F3 (insSVD) cells (setting [3]); 7.73 in test [1] (Table 2a, D770_N771insNPG); 8.50 in test [2] (setting [6]).
Regarding `C=CC(=O)N1Cc2c(-c3ccncc3)c(-c3ccc(F)cc3)nn2C(CC(N)=O)C1` (stereo not drawn) [Example 224, 2-(5-acryloyl-2-(4-fluorophenyl)-3-(pyridin-4-yl)-4,5,6,7-tetrahydropyrazolo[1,5-a]pyrazin-7-yl) acetamide], the pIC50 is 6.47 in the test with BA/F3 (insSVD) cells (setting [3]); 8.12 in test [1] (Table 2a, D770_N771insNPG); 8.62 in test [2] (setting [6]).
As to `C=CC(=O)N1CCn2nc(-c3ccc(Cl)cc3F)c(-c3ccncc3)c2C1C` (single isomer, unassigned; isomer 1) [Example 278, 1-[2-(4-chloro-2-fluorophenyl)-4-methyl-3-(pyridin-4-yl)-6,7-dihydropyrazolo[1,5-a]pyrazin-5(4H)-yl]prop-2-en-1-one (isomer 1)], the pIC50 in the test on BA/F3 (insSVD) cells (setting [8]) is 8.04; in test [1] (Table 2a, D770_N771insNPG), 9.26; in test [2] (setting [6]), 9.69.
Turning to `CCN(C)C/C=C/C(=O)N1CCn2nc(-c3ccc(F)cc3)c(-c3ccncc3)c2C1` [Example 71, (2E)-4-[ethyl(methyl)amino]-1-[2-(4-fluorophenyl)-3-(pyridin-4-yl)-6,7-dihydropyrazolo[1,5-a]pyrazin-5(4H)-yl]but-2-en-1-one], the pIC50 with BA/F3 (insSVD) cells (setting [3]) is 6.92; in test [1] (Table 2a, D770_N771insNPG), 8.51; in test [2] (setting [6]), 9.04.
The matching figures for `COC/C=C/C(=O)N1CCn2nc(-c3ccc(F)cc3)c(-c3ccncc3)c2C1` [Example 66, (2E)-1-[2-(4-fluorophenyl)-3-(pyridin-4-yl)-6,7-dihydropyrazolo[1,5-a]pyrazin-5(4H)-yl]-4-methoxybut-2-en-1-one]: 5.76, 6.65 and 7.06.
Consider `C=CC(=O)N1Cc2c(-c3ccncc3)c(-c3ccc(F)cc3)nn2C(C(=O)N(C)C)C1` (single isomer, unassigned; isomer 1) [Example 206, 5-acryloyl-2-(4-fluorophenyl)-N,N-dimethyl-3-(pyridin-4-yl)-4,5,6,7-tetrahydropyrazolo[1,5-a]pyrazine-7-carboxamide (isomer 1)], for which the pIC50 was 6.22 with BA/F3 (insSVD) cells (setting [3]); 7.08 in test [1] (Table 2a, D770_N771insNPG); 7.26 in test [2] (setting [6]).
The matching figures for `C=CC(=O)N1CCn2nc(Nc3ccc(C(F)(F)F)cc3)c(-c3ccncc3)c2C1` [Example 97, 1-[3-(pyridin-4-yl)-2-[4-(trifluoromethyl)anilino]-6,7-dihydropyrazolo[1,5-a]pyrazin-5(4H)-yl]prop-2-en-1-one]: 5.36, 5.42 and 6.20.
For `C=CC(=O)N1CCn2nc(-c3ccc(C#N)cc3)c(-c3ccnc4[nH]cc(C)c34)c2C1` [Example 182, 4-[3-(3-methyl-1H-pyrrolo[2,3-b]pyridin-4-yl)-5-(prop-2-enoyl)-4,5,6,7-tetrahydropyrazolo[1,5-a]pyrazin-2-yl]benzonitrile] the same measures were 6.27, 5.97 and 6.06.
The matching figures for `C=CC(=O)N1CCn2nc(-c3ccccc3)c(-c3ccncc3)c2C1` [Example 189, 1-[2-phenyl-3-(pyridin-4-yl)-6,7-dihydropyrazolo[1,5-a]pyrazin-5(4H)-yl]prop-2-en-1-one]: 7.65, 8.76 and 8.99.
Consider `CN1CC=C(C(=O)N2CCn3nc(-c4ccc(Cl)cc4F)c(-c4ccncc4)c3C2)C1` [Example 76, [2-(4-chloro-2-fluorophenyl)-3-(pyridin-4-yl)-6,7-dihydropyrazolo[1,5-a]pyrazin-5(4H)-yl](1-methyl-2,5-dihydro-1H-pyrrol-3-yl) methanone], for which the negative logarithm of the IC50 (pIC50) is 6.18 with BA/F3 (insSVD) cells (setting [3]); 7.11 in test [1] (Table 2a, D770_N771insNPG); 7.52 in test [2] (setting [6]).
For `CC1Cn2nc(-c3ccc4ccsc4c3)c(-c3ccncc3)c2CN1C(=O)/C=C/CN(C)C` (racemic) [Example 236, (2E)-1-[(RS)-2-(1-benzothiophen-6-yl)-6-methyl-3-(pyridin-4-yl)-6,7-dihydropyrazolo[1,5-a]pyrazin-5(4H)-yl]-4-(dimethylamino)but-2-en-1-one] the same measures were 6.59, 9.54 and 9.74.
On to `C#CC(=O)N1CCn2nc(-c3ccc(F)cc3)c(-c3ccncc3)c2C1` [Example 13, 1-[2-(4-fluorophenyl)-3-(pyridin-4-yl)-6,7-dihydropyrazolo[1,5-a]pyrazin-5(4H)-yl]prop-2-yn-1-one], for which the pIC50 in the test on BA/F3 (insSVD) cells (setting [3]) is 6.04; in the test on BA/F3 (insSVD) cells (setting [4]) it was 6.04; in test [1] (Table 2a, D770_N771insNPG) it was 8.90; in test [1] (setting [5]), 8.90; in test [2] (setting [6]) it was 9.09; in test [2] (setting [7]), 9.09.
`COc1ccc(-c2nn3c(c2-c2ccncc2)CN(C(=O)/C=C/CN(C)C)CC3)cc1F` [Example 31, (2E)-4-(dimethylamino)-1-[2-(3-fluoro-4-methoxyphenyl)-3-(pyridin-4-yl)-6,7-dihydropyrazolo[1,5-a]pyrazin-5(4H)-yl]but-2-en-1-one]: the pIC50 in the test with BA/F3 (insSVD) cells (setting [3]) was 6.06; in test [1] (Table 2a, D770_N771insNPG), 7.73; in test [2] (setting [6]), 8.39.
The matching figures for `O=C(/C=C/CN1CCC1)N1CCn2nc(-c3ccc(Cl)cc3F)c(-c3ccncc3)c2C1` [Example 77, (2E)-4-(azetidin-1-yl)-1-[2-(4-chloro-2-fluorophenyl)-3-(pyridin-4-yl)-6,7-dihydropyrazolo[1,5-a]pyrazin-5(4H)-yl]but-2-en-1-one]: 7.59, 8.80 and 9.46.
For `COc1ccc(-c2nn3c(c2-c2ccnc4[nH]cc(C)c24)CN(C(=O)/C=C/CN(C)C)CC3)cc1F` [Example 59, (2E)-4-(dimethylamino)-1-[2-(3-fluoro-4-methoxyphenyl)-3-(3-methyl-1H-pyrrolo[2,3-b]pyridin-4-yl)-6,7-dihydropyrazolo[1,5-a]pyrazin-5(4H)-yl]but-2-en-1-one] the same measures were 6.31, 6.02 and 6.09.
The matching figures for `C=CC(=O)N1CCn2nc(-c3cc(Cl)ccc3F)c(-c3ccncc3)c2C1` [Example 132, 1-[2-(5-chloro-2-fluorophenyl)-3-(pyridin-4-yl)-6,7-dihydropyrazolo[1,5-a]pyrazin-5(4H)-yl]prop-2-en-1-one]: 7.35, 8.88 and 9.02.
As for `C=CC(=O)N1CCn2nc(-c3ccccc3Cl)c(-c3ccnc4[nH]cc(C)c34)c2C1` [Example 179, 1-[2-(2-chlorophenyl)-3-(3-methyl-1H-pyrrolo[2,3-b]pyridin-4-yl)-6,7-dihydropyrazolo[1,5-a]pyrazin-5(4H)-yl]prop-2-en-1-one], the negative-log IC50 (pIC50) was 6.58 in the test on BA/F3 (insSVD) cells (setting [3]); 6.44 in test [1] (Table 2a, D770_N771insNPG); 6.36 in test [2] (setting [6]).
For the compound `CC1c2c(-c3ccncc3)c(-c3ccc(Cl)cc3F)nn2CCN1C(=O)/C=C/CN(C)C` (single isomer, unassigned; isomer 2) [Example 286, (2E)-1-[2-(4-chloro-2-fluorophenyl)-4-methyl-3-(pyridin-4-yl)-6,7-dihydropyrazolo[1,5-a]pyrazin-5(4H)-yl]-4-(dimethylamino)but-2-en-1-one (isomer 2)], the pIC50 was 6.07 in the test with BA/F3 (insSVD) cells (setting [8]); 7.02 in test [1] (Table 2a, D770_N771insNPG); 7.15 in test [2] (setting [6]).
The matching figures for `C=CC(=O)N1Cc2c(-c3ccncc3)c(-c3ccc(OC)cc3)nn2C(C)C1` (single isomer, unassigned; isomer 2) [Example 275, 1-[2-(4-methoxyphenyl)-7-methyl-3-(pyridin-4-yl)-6,7-dihydropyrazolo[1,5-a]pyrazin-5(4H)-yl]prop-2-en-1-one (isomer 2)]: 7.77, 8.91 and 9.32.
